Reference: patent publication US20100197628A1, “METHODS OF TREATING PSYCHIATRIC, SUBSTANCE ABUSE, AND OTHER DISORDERS USING COMBINATIONS CONTAINING OMEGA-3 FATTY ACIDS” (priority 2003, published 2010)

Key:
[1] = cited from earlier work
brain phosphodiesters = assay: Phosphorus-31 MR spectroscopy of lipid metabolite resonances during chronic CDP-choline administration; assay type: in vivo, human; settings: 18 healthy subjects, mean age 70; 500 mg oral daily for 6 weeks, weeks 6-12 half continued, half placebo; p=0.008
Method: (§1) To assess whether chronic CDP-choline administration leads to detectable changes in lipid metabolite resonances in phosphorus-31 MR spectra, eighteen healthy subjects (mean age: 70) were administered 500 mg of an oral formulation of CDP-choline daily for a six week period. From weeks 6 to 12, half of the subjects continued to receive CDP-choline and half received placebo in a double-blind fashion. […] CDP-choline administration, therefore, improves measures of verbal fluency and spatial memory in healthy adults and results in increased brain phospholipid synthesis in older adults, particularly during chronic administration.

depressed subjects = assay: 17-item Hamilton Depression Rating Scale (HDRS), eight weeks of treatment; assay type: in vivo, human
Method: (§2) In a second study, twelve depressed subjects (mean age 40) received 500 mg of an oral formulation of CDP-choline twice daily for eight weeks.

[2] = tested on: cytosolic choline resonance in the anterior cingulate cortex; assay: Proton MR spectroscopy of cytosolic choline resonance; assay type: in vivo, human; settings: associated with a successful response; 500 mg twice daily, eight weeks
Method: as §2

rats [3] = assay: Forced swim test (FST) with citicoline, cytidine and choline; assay type: in vivo, rat; settings: IP; for antidepressant effects in the FST: citicoline 50-500 mg/kg, cytidine 23.8-238 mg/kg, choline 13.7-136.6 mg/kg (molar equivalent amounts)
Method: The effects of citicoline were examined in the forced swim test (FST), a rodent model of depression as described herein. Because citicoline is rapidly converted to cytidine and choline, their effects were also examined in the FST.
Forced Swim Test (FST): One hundred-sixty seven rats were used in the FST studies, which were conducted as described previously (Carlezon et al. Biol. Psychiatry 51:882-889, 2002) with minor modifications. The FST is a two-day procedure in which rats swim under conditions in which escape is not possible. On the first day, rats are placed in clear, 65 cm tall-25 cm diameter cylinders filled to 48 cm with 25° C. water. The rats initially struggle to escape from the water, but eventually they adopt a posture of immobility in which they make only the movements necessary to keep their heads above water. After 15 min of forced swimming, the rats are removed from the water, dried with towels, and placed in a warmed enclosure for 30 min. The cylinders are emptied and cleaned between rats. When the rats are re-tested 24 hours later under identical conditions in 5 min sessions, immobility is increased. Treatment with standard antidepressant drugs within the 24 hr period between the first exposure to forced swimming and re-testing can attenuate facilitated immobility, an effect correlated with antidepressant efficacy in humans (Porsolt et al. Nature 266:730-732 1977; Detke et al. Psychopharmacology 121:66-72 1995, Carlezon et al. Biol. Psychiatry 51:882-889, 2002).

[4] = ingestion of large amounts in preclinical studies; cited from earlier work
healthy subjects = assay: Neuropsychological testing during chronic CDP-choline administration; assay type: in vivo, human; settings: across all subjects at week twelve, 500 mg oral daily
Method: as §1

rats [5] = assay: Locomotor activity after cytidine; assay type: in vivo, rat; settings: 238 mg/kg, IP (optimally effective dose)
rats [6] = assay: Conditioned rewarding effects of cytidine; assay type: in vivo, rat; settings: 238 mg/kg, IP
[7] = tested on: putamen, caudate and thalamus of children with ADHD; assay: T2 relaxometry fMRI (T2-RT), indirect measure of regional blood volume; assay type: in vivo, human; settings: ongoing treatment
Source text: A new fMRI procedure (T2 relaxometry or “T2-RT”) was developed to indirectly assess blood volume in the striatum (caudate and putamen) of boys 6-12 years of age under steady-state conditions. Six healthy control boys (10.2±1.5 yr) and eleven boys diagnosed with ADHD (9.3±1.6 yr) served as subjects in the study to examine fMRI differences between unmedicated healthy controls and ADHD children on either placebo or the highest dose of methylphenidate. The healthy controls were screened using structured diagnostic interview (K-SADS-E; Orvaschel, H. & Puig-Antich, J., The schedule for affective disorders and schizophrenia for school-age children-epidemiologic version (Kiddie-SADS-E), University of Pittsburgh, Pittsburgh, Pa., 1987), were free of any major psychiatric disorder, and had no more than 3 out of 9 possible symptoms of inattention or hyperactivity-impulsivity by DSM-IV criteria. Children with ADHD were included if they met criteria for ADHD on structured diagnostic interview, and had at least 6 of 9 symptoms of inattention or hyperactivity-impulsivity. Children with ADHD took part in a triple blind (parent, child, rater), randomized, placebo-controlled study of effects of methylphenidate (0, 0.5, 0.8, 1.5 mg/kg in divided dose) on activity, attention, and fMRI. Children with ADHD were treated continuously for one week with placebo or a specific dose of methylphenidate and at the end of the week were tested for drug efficacy using objective measures of attention and activity and fMRI (See Methods) within 1-3 hours of their afternoon dose. The time between dose and testing was held constant for each subject throughout the four treatment conditions. Activity and attention were evaluated in unmedicated healthy controls using the same procedure as children with ADHD, and fMRI followed within the same time frame.
T2 relaxometry, a novel fMRI procedure, was used to derive steady state blood flow measures and to test for enduring medication effects. […] T2 relaxometry, like BOLD, hinges on the paramagnetic properties of deoxyhemoglobin. […]

children with ADHD [8] = assay: Computerized continuous performance task (CPT), measure of attention; assay type: in vivo, human
Method: A new fMRI procedure (T2 relaxometry or “T2-RT”) was developed to indirectly assess blood volume in the striatum (caudate and putamen) of boys 6-12 years of age under steady-state conditions. Six healthy control boys (10.2±1.5 yr) and eleven boys diagnosed with ADHD (9.3±1.6 yr) served as subjects in the study to examine fMRI differences between unmedicated healthy controls and ADHD children on either placebo or the highest dose of methylphenidate. […] Activity and attention were evaluated in unmedicated healthy controls using the same procedure as children with ADHD, and fMRI followed within the same time frame.
(§3) Highly accurate laboratory-based measures of activity and attention were obtained by having the children perform a computerized vigilance test while an infrared motion analysis system captured and recorded movements (see Methods). […]
Assessment of Activity and Attention. […] In brief, children sat in front of a computer and were evaluated using a simple GO/NO−GO CPT in which the subject responds to visual presentation of a target and withholds response to a non-target stimuli that appear in the center of the screen at a fixed 2 second […] interval (Greenberg et al., Psychopharmacol. Bull. 23: 279-282, 1987). […]
Statistical Analyses. Differences between groups was assessed using ANCOVA with age as a covariate. […]

children with ADHD [9] = assay: Infrared motion analysis of activity during the attention test; assay type: in vivo, human
Source text: A new fMRI procedure (T2 relaxometry or “T2-RT”) was developed to indirectly assess blood volume in the striatum (caudate and putamen) of boys 6-12 years of age under steady-state conditions. Six healthy control boys (10.2±1.5 yr) and eleven boys diagnosed with ADHD (9.3±1.6 yr) served as subjects in the study to examine fMRI differences between unmedicated healthy controls and ADHD children on either placebo or the highest dose of methylphenidate. The healthy controls were screened using structured diagnostic interview (K-SADS-E; Orvaschel, H. & Puig-Antich, J., The schedule for affective disorders and schizophrenia for school-age children-epidemiologic version (Kiddie-SADS-E), University of Pittsburgh, Pittsburgh, Pa., 1987), were free of any major psychiatric disorder, and had no more than 3 out of 9 possible symptoms of inattention or hyperactivity-impulsivity by DSM-IV criteria. Children with ADHD were included if they met criteria for ADHD on structured diagnostic interview, and had at least 6 of 9 symptoms of inattention or hyperactivity-impulsivity. Children with ADHD took part in a triple blind (parent, child, rater), randomized, placebo-controlled study of effects of methylphenidate (0, 0.5, 0.8, 1.5 mg/kg in divided dose) on activity, attention, and fMRI. […] Activity and attention were evaluated in unmedicated healthy controls using the same procedure as children with ADHD, and fMRI followed within the same time frame.
as §3
Assessment of Activity and Attention. […] In brief, children sat in front of a computer and were evaluated using a simple GO/NO−GO CPT in which the subject responds to visual presentation of a target and withholds response to a non-target stimuli that appear in the center of the screen at a fixed 2 second […] interval (Greenberg et al., Psychopharmacol. Bull. 23: 279-282, 1987). […] Three 5-minute test sessions were recorded during a 30-minute test period while an infrared motion analysis system (Qualisys, Glastonbury, Conn.) recorded the movement of small reflective markers attached to the head, shoulder, elbow, and back of the child. […] Results were analyzed using the concept of “micro-events.” A new micro-event begins when the marker moves 1.0 millimeters or more from its most recent resting location, and is defined by its position and duration. The spatial scaling exponent is a measure of the spatial complexity of the movement path, and is calculated from the logarithmic rate of information decay at progressively lower levels of resolution. […]

[10] = eight weeks, CDP-choline 500 mg twice daily, fluoxetine 20 mg/day
[11] = children with ADHD, methylphenidate vs placebo, P<0.05

In the case of C[N+](C)(C)CCOP(=O)(O)OP(=O)([O-])OC[C@H]1O[C@@H](n2ccc(N)nc2=O)[C@H](O)[C@@H]1O [CDP-choline, cytidine 5′-diphosphocholine], the “CDP-choline and/or its metabolites absorbed” value ([1]; orally administered) is given as “more than 99%”, the excreted in feces ([1]; orally administered) is given as “less than 1%” and the excretion route lung ([1]; share of dose) is given as 12.9%. For the same compound, the excretion route urine ([1]; share of dose) was 2.4%, the “rest of the dose metabolized and retained in tissues” value ([1]; share of dose) was 83.9% and the “brain phosphodiesters (phosphorus-31 MR)” value (brain phosphodiesters) was “significant increase”. The “mean 17-item HDRS score with eight weeks of treatment” value (depressed subjects; CDP-choline 500 mg oral twice daily, fluoxetine open label 20 mg/day, p<0.0001) was 10±7, the “mean 17-item HDRS score before treatment” value (depressed subjects; baseline, CDP-choline 12 subjects, fluoxetine 41 subjects) was 21±3 and the “complete responses (subjects/total)” value (depressed subjects; [10]) was 6/12. The “complete responses, share of subjects” value (depressed subjects; [10]) was 50%, the “proton MR spectroscopic cytosolic choline resonance in the anterior cingulate cortex” value [2] was “reduction” and the “antidepressant effects in the FST” value (rats [3]) was “did not have antidepressant effects”. For the same compound, the “effect in the FST at high doses” value (rats [3]; high doses of citicoline) was “small pro-depressant effects”, the toxicity symptoms [4] was “common cholinergic symptoms” and the visuospatial learning (healthy subjects; p=0.0001) was “increases”. The verbal learning (healthy subjects; p=0.003) was “increases” and the verbal fluency (healthy subjects; p=0.07) was “increases”.
In the case of Nc1ccn([C@@H]2O[C@H](CO)[C@@H](O)[C@H]2O)c(=O)n1 [cytidine], the locomotor activity (rats [5]) is reported as “did not affect locomotor activity”, the conditioned rewarding effects (rats [6]) is reported as “did not affect locomotor activity or establish conditioned rewarding effects” and the “antidepressant effects in the FST” value (rats [3]) is reported as “significant antidepressant effects”.
For COC(=O)C(c1ccccc1)C1CCCCN1 (centres unmarked) [methylphenidate], the “T2-RT in right caudate” value ([7]; P=0.08) was “trend-level difference”, the T2-RT in thalamus ([7]; P>0.7) was “failed to exert significant effects” and the “T2-RT in right and left putamen” value ([7]; response tied to unmedicated activity state, P=0.006) was “significantly altered”. The “response variability (S.D.) of response latency” value (children with ADHD [8]; children with ADHD on methylphenidate (placebo 242 msec), P<0.005) was 149 ms, the “performance accuracy on the CPT” value (children with ADHD [8]; children with ADHD, methylphenidate vs placebo, one week of treatment, P<0.05) was “enhancing” and the “increase in spatial complexity” value (children with ADHD [9]; 5 ADHD children not objectively hyperactive on placebo, p>0.6) was less than 8%. The “increase in spatial complexity” value (children with ADHD [9]; 6 subjects objectively hyperactive on placebo, P<0.02) was 52.6%, the “complexity of the movement pattern” value (children with ADHD [9]; [11]) was “increasing” and the “increase in time spent immobile” value (children with ADHD [9]; [11]) was 126%.
